Patent US9833497B2, “Human originated EGF domain proteins and use of the same” (CHENGDU SOURCEBIO LIMITED-LIABILITY COMPANY, priority 2013, dated 2017)

Columns and labels:
Assay type in all cases: cell-based
Aeromonas hydrophila = assay: MIC against Gram-negative bacteria: Aeromonas hydrophila; conditions: for MIC against A. hydrophila: Aeromonas hydrophila
Procedure, shortened: (§1)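 Inocula prepared by growing LB cultures at 37° C to 0.5 McFarland, centrifuging at 4000×g, and resuspending in fresh medium. Final density 5×10^5 CFU/mL per well with two-fold dilutions of purified EGF domain protein; shaking incubation at 37° C.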

E. coli DH5α = assay: Antibacterial activity: MIC and growth curve against E. coli DH5α in 96-well plate; conditions: minimal inhibitory concentration against E. coli DH5α; 96-well plate, 5×10^5 CFU/mL, 37° C., judged after 8 h
Procedure, shortened: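 Log-phase DH5α (OD600 about 0.5, 37° C, 185 rpm in LB) was pelleted, resuspended in fresh LB and seeded at 5×10^5 CFU/mL with recombinant protein at 50, 25 and 12.5 μg/mL (two-fold series), in triplicate. Plates were shaken at 175 rpm, 37° C, and OD600 was read every 30 min. MIC was the lowest concentration with no growth.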

E. coli BL21 = assay: MIC against Gram-negative bacteria: E. coli BL21
Procedure, shortened: as §1

Proteus mirabilis = assay: MIC against Gram-negative bacteria: Proteus mirabilis; conditions: for MIC against P. mirabilis: Proteus mirabilis
Procedure, shortened: as §1

Pseudomonas aeruginosa = assay: MIC against Gram-negative bacteria: Pseudomonas aeruginosa; conditions: for MIC against P. aeruginosa: Pseudomonas aeruginosa
Procedure, shortened: as §1

Moraxella catarrhalis = assay: MIC against Gram-negative bacteria: Moraxella catarrhalis; conditions: for MIC against M. catarrhalis: Moraxella catarrhalis
Procedure, shortened: as §1

Klebsiella pneumonia = assay: MIC against Gram-negative bacteria: Klebsiella pneumonia; conditions: for MIC against K. pneumonia: Klebsiella pneumonia
Procedure, shortened: as §1

Serratia marcescens = assay: MIC against Gram-negative bacteria: Serratia marcescens; conditions: for MIC against S. marcescens: Serratia marcescens
Procedure, shortened: as §1

Citrobacter diversus = assay: MIC against Gram-negative bacteria: Citrobacter diversus; conditions: for MIC against C. diversus: Citrobacter diversus
Procedure, shortened: as §1

Enterobacter cloacae = assay: MIC against Gram-negative bacteria: Enterobacter cloacae; conditions: for MIC against E. cloacae: Enterobacter cloacae
Procedure, shortened: as §1

Proteus vulgaris = assay: MIC against Gram-negative bacteria: Proteus vulgaris; conditions: for MIC against P. vulgaris: Proteus vulgaris
Procedure, shortened: as §1

[1] = 96-well plate, 5×10^5 CFU/mL, 37° C., 10 h
[2] = A. hydrophila, 10 h cultivation at 37° C.
[3] = E. coli BL21, 10 h cultivation at 37° C.
[4] = P. mirabilis, 10 h cultivation at 37° C.
[5] = P. aeruginosa, 10 h cultivation at 37° C.
[6] = M. catarrhalis, 10 h cultivation at 37° C.
[7] = K. pneumonia, 10 h cultivation at 37° C.
[8] = S. marcescens, 10 h cultivation at 37° C.
[9] = C. diversus, 10 h cultivation at 37° C.
[10] = E. cloacae, 10 h cultivation at 37° C.
[11] = P. vulgaris, 10 h cultivation at 37° C.
[12] = A. hydrophila, 10 h cultivation at 37° C., 5×10^5 CFU/mL
[13] = E. coli BL21, 10 h cultivation at 37° C., 5×10^5 CFU/mL
[14] = P. mirabilis, 10 h cultivation at 37° C., 5×10^5 CFU/mL
[15] = P. aeruginosa, 10 h cultivation at 37° C., 5×10^5 CFU/mL
[16] = M. catarrhalis, 10 h cultivation at 37° C., 5×10^5 CFU/mL
[17] = K. pneumonia, 10 h cultivation at 37° C., 5×10^5 CFU/mL
[18] = S. marcescens, 10 h cultivation at 37° C., 5×10^5 CFU/mL
[19] = C. diversus, 10 h cultivation at 37° C., 5×10^5 CFU/mL
[20] = E. cloacae, 10 h cultivation at 37° C., 5×10^5 CFU/mL
[21] = P. vulgaris, 10 h cultivation at 37° C., 5×10^5 CFU/mL
[22] = 10 h cultivation at 37° C., 5×10^5 CFU/mL, two-fold serial dilution
[23] = 5×10^5 CFU/mL, 10 h cultivation at 37° C.
[24] = E. coli BL21, 5×10^5 CFU/mL, 10 h cultivation at 37° C.

Substance: PRT1243 (FGESCEQQCPHCRHGEACEPDTGHCQRCDPGWLGPRCE; listed as Homo sapiens)
- MIC against A. hydrophila (Aeromonas hydrophila; [1]): 50 µg/mL
- MIC (E. coli DH5α): 12.5 µg/mL
- MIC against E. coli BL21 (E. coli BL21; E. coli BL21, 96-well plate, 5×10^5 CFU/mL, 37° C., 10 h): 50 µg/mL
- MIC against P. mirabilis (Proteus mirabilis; [1]): 50 µg/mL
- MIC against P. aeruginosa (Pseudomonas aeruginosa; [1]): 12.5 µg/mL
- MIC against M. catarrhalis (Moraxella catarrhalis; [1]): 25 µg/mL
- MIC against K. pneumonia (Klebsiella pneumonia; [1]): 50 µg/mL
- MIC against S. marcescens (Serratia marcescens; [1]): 12.5 µg/mL
- MIC against C. diversus (Citrobacter diversus; [1]): 12.5 µg/mL
- MIC against E. cloacae (Enterobacter cloacae; [1]): 12.5 µg/mL
- MIC against P. vulgaris (Proteus vulgaris; [1]): 25 µg/mL

Substance: PRT676 (DINECAMPGVCRHGDCLNNPGSYRCVCPPGHSLGPSRTQCI; listed as Homo sapiens)
- MIC A. hydrophila (Aeromonas hydrophila; [1]): 12.5 µg/mL
- MIC (E. coli DH5α): 25 µg/mL
- MIC E. coli BL21 (E. coli BL21; [1]): 50 µg/mL
- MIC P. mirabilis (Proteus mirabilis; [1]): 12.5 µg/mL
- MIC P. aeruginosa (Pseudomonas aeruginosa; [1]): 12.5 µg/mL
- MIC M. catarrhalis (Moraxella catarrhalis; [1]): 25 µg/mL
- MIC K. pneumonia (Klebsiella pneumonia; [1]): 50 µg/mL
- MIC S. marcescens (Serratia marcescens; [1]): 12.5 µg/mL
- MIC C. diversus (Citrobacter diversus; [1]): 50 µg/mL
- MIC E. cloacae (Enterobacter cloacae; [1]): 25 µg/mL
- MIC P. vulgaris (Proteus vulgaris; [1]): 50 µg/mL

Substance: PRT1032 (DVNECDIPGHCQHGGTCLNLPGSYQCQCLQGFTGQYCD; listed as Homo sapiens)
- MIC (Aeromonas hydrophila; [2]): 12.5 µg/mL
- MIC (E. coli DH5α): 50 µg/mL
- MIC (E. coli BL21; [3]): 12.5 µg/mL
- MIC (Proteus mirabilis; [4]): 25 µg/mL
- MIC (Pseudomonas aeruginosa; [5]): 50 µg/mL
- MIC (Moraxella catarrhalis; [6]): 50 µg/mL
- MIC (Klebsiella pneumonia; [7]): 12.5 µg/mL
- MIC (Serratia marcescens; [8]): 25 µg/mL
- MIC (Citrobacter diversus; [9]): 25 µg/mL
- MIC (Enterobacter cloacae; [10]): 50 µg/mL
- MIC (Proteus vulgaris; [11]): 12.5 µg/mL

Substance: PRT434 (DVNECATENPCVQTCVNTYGSFICRCDPGYELEEDGVHCS; listed as Homo sapiens)
- MIC (Aeromonas hydrophila; [12]): 50 µg/mL
- MIC (E. coli DH5α): 12.5 µg/mL
- MIC (E. coli BL21; [13]): 50 µg/mL
- MIC (Proteus mirabilis; [14]): 25 µg/mL
- MIC (Pseudomonas aeruginosa; [15]): 12.5 µg/mL
- MIC (Moraxella catarrhalis; [16]): 50 µg/mL
- MIC (Klebsiella pneumonia; [17]): 50 µg/mL
- MIC (Serratia marcescens; [18]): 25 µg/mL
- MIC (Citrobacter diversus; [19]): 12.5 µg/mL
- MIC (Enterobacter cloacae; [20]): 12.5 µg/mL
- MIC (Proteus vulgaris; [21]): 12.5 µg/mL

Substance: PRT1119 (EVLECASAPCEHNASCLEGLGSFRCLCWPGYSGELCE; listed as Homo sapiens)
- MIC A. hydrophila (Aeromonas hydrophila; [22]): 25 µg/mL
- MIC (E. coli DH5α): 100 µg/mL
- MIC E. coli BL21 (E. coli BL21; [22]): 25 µg/mL
- MIC P. mirabilis (Proteus mirabilis; [22]): 12.5 µg/mL
- MIC P. aeruginosa (Pseudomonas aeruginosa; [22]): 50 µg/mL
- MIC M. catarrhalis (Moraxella catarrhalis; [22]): 25 µg/mL
- MIC K. pneumonia (Klebsiella pneumonia; [22]): 25 µg/mL
- MIC S. marcescens (Serratia marcescens; [22]): 50 µg/mL
- MIC C. diversus (Citrobacter diversus; [22]): 50 µg/mL
- MIC E. cloacae (Enterobacter cloacae; [22]): 12.5 µg/mL
- MIC P. vulgaris (Proteus vulgaris; [22]): 25 µg/mL

Substance: PRT237 (DINECTPPYSVYCGFNAVCYNVEGSFYCQCVPGYRLHSGNEQFSNSNENTCQ; listed as Homo sapiens)
- MIC (μg/mL) A. hydrophila (Aeromonas hydrophila; [12]): 12.5 µg/mL
- MIC (E. coli DH5α): 25 µg/mL
- MIC (μg/mL) E. coli BL21 (E. coli BL21; [13]): 12.5 µg/mL
- MIC (μg/mL) P. mirabilis (Proteus mirabilis; [14]): 25 µg/mL
- MIC (μg/mL) P. aeruginosa (Pseudomonas aeruginosa; [15]): 25 µg/mL
- MIC (μg/mL) M. catarrhalis (Moraxella catarrhalis; [16]): 12.5 µg/mL
- MIC (μg/mL) K. pneumonia (Klebsiella pneumonia; [17]): 12.5 µg/mL
- MIC (μg/mL) S. marcescens (Serratia marcescens; [18]): 50 µg/mL
- MIC (μg/mL) C. diversus (Citrobacter diversus; [19]): 25 µg/mL
- MIC (μg/mL) E. cloacae (Enterobacter cloacae; [20]): 25 µg/mL
- MIC (μg/mL) P. vulgaris (Proteus vulgaris; [21]): 25 µg/mL

Substance: PRT1413 (PTNQCIDVACSNHGTCITGTCICNPGYKGESCE; listed as Homo sapiens)
- MIC against A. hydrophila (Aeromonas hydrophila; [23]): 25 µg/mL
- MIC (E. coli DH5α): 12.5 µg/mL
- MIC against E. coli BL21 (E. coli BL21; [24]): 25 µg/mL
- MIC against P. mirabilis (Proteus mirabilis; [23]): 50 µg/mL
- MIC against P. aeruginosa (Pseudomonas aeruginosa; [23]): 50 µg/mL
- MIC against M. catarrhalis (Moraxella catarrhalis; [23]): 12.5 µg/mL
- MIC against K. pneumonia (Klebsiella pneumonia; [23]): 25 µg/mL
- MIC against S. marcescens (Serratia marcescens; [23]): 12.5 µg/mL
- MIC against C. diversus (Citrobacter diversus; [23]): 50 µg/mL
- MIC against E. cloacae (Enterobacter cloacae; [23]): 12.5 µg/mL
- MIC against P. vulgaris (Proteus vulgaris; [23]): 25 µg/mL

Substance: PRT939 (DMNECLSEPCKNGGTCSDYVNSYTCKCQAGFDGVHCE; listed as Homo sapiens)
- MIC (Aeromonas hydrophila; [2]): 12.5 µg/mL
- MIC (E. coli DH5α): 50 µg/mL
- MIC (E. coli BL21; [3]): 25 µg/mL
- MIC (Proteus mirabilis; [4]): 50 µg/mL
- MIC (Pseudomonas aeruginosa; [5]): 12.5 µg/mL
- MIC (Moraxella catarrhalis; [6]): 12.5 µg/mL
- MIC (Klebsiella pneumonia; [7]): 12.5 µg/mL
- MIC (Serratia marcescens; [8]): 50 µg/mL
- MIC (Citrobacter diversus; [9]): 50 µg/mL
- MIC (Enterobacter cloacae; [10]): 50 µg/mL
- MIC (Proteus vulgaris; [11]): 12.5 µg/mL

Substance: PRT608 (CDCNGRSQECYFDPELYRSTGHGGHCTNCQDNTDGAHCERCRENFFRLGNNEACSS; listed as Homo sapiens)
- MIC A. hydrophila (Aeromonas hydrophila; [1]): 12.5 µg/mL
- MIC (E. coli DH5α): 12.5 µg/mL
- MIC E. coli BL21 (E. coli BL21; [1]): 50 µg/mL
- MIC P. mirabilis (Proteus mirabilis; [1]): 25 µg/mL
- MIC P. aeruginosa (Pseudomonas aeruginosa; [1]): 12.5 µg/mL
- MIC M. catarrhalis (Moraxella catarrhalis; [1]): 50 µg/mL
- MIC K. pneumonia (Klebsiella pneumonia; [1]): 50 µg/mL
- MIC S. marcescens (Serratia marcescens; [1]): 25 µg/mL
- MIC C. diversus (Citrobacter diversus; [1]): 25 µg/mL
- MIC E. cloacae (Enterobacter cloacae; [1]): 25 µg/mL
- MIC P. vulgaris (Proteus vulgaris; [1]): 12.5 µg/mL

Substance: PRT1478 (GGSPCISQPCLHNGSCQDSIWGYTCTCSPGYEGSNCE; listed as Homo sapiens)
- MIC against A. hydrophila (Aeromonas hydrophila; [23]): 50 µg/mL
- MIC (E. coli DH5α): 50 µg/mL
- MIC against E. coli BL21 (E. coli BL21; [24]): 12.5 µg/mL
- MIC against P. mirabilis (Proteus mirabilis; [23]): 50 µg/mL
- MIC against P. aeruginosa (Pseudomonas aeruginosa; [23]): 50 µg/mL
- MIC against M. catarrhalis (Moraxella catarrhalis; [23]): 25 µg/mL
- MIC against K. pneumonia (Klebsiella pneumonia; [23]): 25 µg/mL
- MIC against S. marcescens (Serratia marcescens; [23]): 12.5 µg/mL
- MIC against C. diversus (Citrobacter diversus; [23]): 12.5 µg/mL
- MIC against E. cloacae (Enterobacter cloacae; [23]): 12.5 µg/mL
- MIC against P. vulgaris (Proteus vulgaris; [23]): 25 µg/mL
